{
  "source": "ChEMBL document CHEMBL5143597",
  "about": "“Design and synthesis of novel spirocyclic carboxylic acids as potent and orally bioavailable DGAT1 inhibitors and their biological evaluation” (Bioorg Med Chem Lett, 2022)",
  "key": {"[1]": {"target": "CYP3A4 (Homo sapiens, UniProt P08684)", "sequence (P08684 whole entry)": "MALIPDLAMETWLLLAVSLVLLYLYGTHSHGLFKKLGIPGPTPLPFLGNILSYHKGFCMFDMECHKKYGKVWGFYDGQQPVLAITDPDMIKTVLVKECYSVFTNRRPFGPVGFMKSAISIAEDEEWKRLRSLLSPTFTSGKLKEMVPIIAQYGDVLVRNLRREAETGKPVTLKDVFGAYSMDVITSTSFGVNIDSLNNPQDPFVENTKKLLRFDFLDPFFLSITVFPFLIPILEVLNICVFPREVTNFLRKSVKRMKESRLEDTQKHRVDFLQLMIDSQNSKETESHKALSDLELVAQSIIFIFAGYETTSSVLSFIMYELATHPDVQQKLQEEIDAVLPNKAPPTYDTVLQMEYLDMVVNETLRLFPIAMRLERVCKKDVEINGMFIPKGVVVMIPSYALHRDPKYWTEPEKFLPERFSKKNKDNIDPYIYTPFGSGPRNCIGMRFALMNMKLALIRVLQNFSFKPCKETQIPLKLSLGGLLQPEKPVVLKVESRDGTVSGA", "assay": "Inhibition of recombinant human CYP3A4 at 25 uM by fluorescence plate reader analysis", "format": "ADME"}, "[2]": {"assay": "Solubility of compound in PBS at pH 2 incubated for 4 hrs under shaking condition by UV absorbance based analysis", "format": "physicochemical"}, "[3]": {"target": "CYP2D6 (Homo sapiens, UniProt P10635)", "sequence (P10635 whole entry)": "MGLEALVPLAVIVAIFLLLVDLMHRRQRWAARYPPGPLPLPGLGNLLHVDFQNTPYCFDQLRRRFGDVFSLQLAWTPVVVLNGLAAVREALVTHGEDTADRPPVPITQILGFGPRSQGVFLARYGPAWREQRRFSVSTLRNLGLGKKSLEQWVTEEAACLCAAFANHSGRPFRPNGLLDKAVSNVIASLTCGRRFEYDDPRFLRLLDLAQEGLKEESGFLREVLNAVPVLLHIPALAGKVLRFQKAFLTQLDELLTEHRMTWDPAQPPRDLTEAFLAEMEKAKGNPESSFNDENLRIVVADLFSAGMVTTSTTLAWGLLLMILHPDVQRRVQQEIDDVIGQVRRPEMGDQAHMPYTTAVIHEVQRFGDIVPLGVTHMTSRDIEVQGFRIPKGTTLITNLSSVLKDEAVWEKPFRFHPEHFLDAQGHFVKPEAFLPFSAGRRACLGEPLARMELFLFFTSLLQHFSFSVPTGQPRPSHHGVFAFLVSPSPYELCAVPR", "assay": "Inhibition of recombinant human CYP2D6 at 10 uM by fluorescence plate reader analysis", "format": "ADME"}, "[4]": {"target": "T1, CYP1A2 (Homo sapiens, UniProt P05177)", "T1 sequence (P05177 whole entry)": "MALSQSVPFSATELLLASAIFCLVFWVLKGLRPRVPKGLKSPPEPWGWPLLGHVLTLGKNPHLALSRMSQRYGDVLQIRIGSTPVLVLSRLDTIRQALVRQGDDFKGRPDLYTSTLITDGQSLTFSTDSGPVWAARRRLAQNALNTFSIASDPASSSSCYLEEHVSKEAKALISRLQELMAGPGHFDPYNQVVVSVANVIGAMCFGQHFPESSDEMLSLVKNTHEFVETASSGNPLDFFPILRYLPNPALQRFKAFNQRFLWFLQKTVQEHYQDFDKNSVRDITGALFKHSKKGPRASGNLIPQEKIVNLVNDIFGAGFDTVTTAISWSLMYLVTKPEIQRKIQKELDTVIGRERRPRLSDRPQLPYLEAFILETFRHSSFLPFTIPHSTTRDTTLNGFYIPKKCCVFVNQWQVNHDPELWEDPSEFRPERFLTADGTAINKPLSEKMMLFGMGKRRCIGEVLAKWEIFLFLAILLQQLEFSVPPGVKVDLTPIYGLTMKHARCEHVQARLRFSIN", "assay": "Inhibition of recombinant human CYP1A2 at 25 uM by fluorescence plate reader analysis", "format": "ADME"}, "[5]": {"assay": "Solubility of compound in PBS at pH 4 incubated for 4 hrs under shaking condition by UV absorbance based analysis", "format": "physicochemical"}, "[6]": {"assay": "Solubility of compound in PBS at pH 9 incubated for 4 hrs under shaking condition by UV absorbance based analysis", "format": "physicochemical"}, "[7]": {"assay": "Solubility of compound in PBS at pH 7.4 incubated for 4 hrs under shaking condition by UV absorbance based analysis", "format": "physicochemical"}, "[8]": {"target": "CYP2C9 (Homo sapiens, UniProt P11712)", "sequence (P11712 whole entry)": "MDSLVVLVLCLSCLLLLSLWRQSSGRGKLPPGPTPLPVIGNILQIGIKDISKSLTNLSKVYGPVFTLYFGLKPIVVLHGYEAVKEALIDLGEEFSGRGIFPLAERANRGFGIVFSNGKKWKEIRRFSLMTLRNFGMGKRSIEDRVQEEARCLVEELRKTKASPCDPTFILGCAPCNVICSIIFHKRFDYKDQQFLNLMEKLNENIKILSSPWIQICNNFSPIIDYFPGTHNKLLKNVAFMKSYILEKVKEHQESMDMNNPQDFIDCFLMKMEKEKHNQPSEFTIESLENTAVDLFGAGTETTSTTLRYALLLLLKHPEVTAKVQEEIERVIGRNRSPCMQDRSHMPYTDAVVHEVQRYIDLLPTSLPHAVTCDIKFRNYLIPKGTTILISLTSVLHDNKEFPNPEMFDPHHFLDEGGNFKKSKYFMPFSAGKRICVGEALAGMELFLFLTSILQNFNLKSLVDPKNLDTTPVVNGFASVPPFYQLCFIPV", "assay": "Inhibition of recombinant human CYP2C9 at 25 uM by fluorescence plate reader analysis", "format": "ADME"}, "[9]": {"target": "T2, Diacylglycerol O-acyltransferase 1 (Homo sapiens, UniProt O75907)", "T2 sequence (O75907 whole entry)": "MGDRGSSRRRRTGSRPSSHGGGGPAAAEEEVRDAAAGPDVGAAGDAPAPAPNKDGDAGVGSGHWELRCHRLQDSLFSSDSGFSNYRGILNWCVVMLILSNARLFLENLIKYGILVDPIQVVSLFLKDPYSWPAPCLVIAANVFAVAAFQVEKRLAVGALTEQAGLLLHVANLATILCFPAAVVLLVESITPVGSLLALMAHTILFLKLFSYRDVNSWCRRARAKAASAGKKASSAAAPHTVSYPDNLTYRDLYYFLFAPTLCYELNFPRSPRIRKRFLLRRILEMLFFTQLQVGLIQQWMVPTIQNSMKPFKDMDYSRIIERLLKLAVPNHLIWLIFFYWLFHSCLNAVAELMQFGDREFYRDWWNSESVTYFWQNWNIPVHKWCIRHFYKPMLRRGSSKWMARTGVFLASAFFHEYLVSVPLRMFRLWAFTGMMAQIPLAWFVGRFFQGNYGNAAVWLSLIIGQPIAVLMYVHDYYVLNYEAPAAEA", "assay": "Inhibition of recombinant human DGAT1 expressed in Sf9 cell membrane assessed as inhibition of triglyceride synthesis incubated for 1 hrs by LC-MS-based mass spectrophotometric analysis", "format": "cell membranes"}, "[10]": {"target": "T2, Diacylglycerol O-acyltransferase 1", "assay": "Inhibition of human DGAT1 in serum starved HEK293 cells assessed as inhibition of triglyceride synthesis incubated for 20 mins followed by 13C-addition of 13C-oleic acid pre-complexed with BSA for 120 mins by LC-MS-based mass spectrophotometric analysis", "format": "cell-based"}, "[11]": {"target": "hERG (KCNH2) (Homo sapiens, UniProt Q12809)", "sequence (Q12809 whole entry)": "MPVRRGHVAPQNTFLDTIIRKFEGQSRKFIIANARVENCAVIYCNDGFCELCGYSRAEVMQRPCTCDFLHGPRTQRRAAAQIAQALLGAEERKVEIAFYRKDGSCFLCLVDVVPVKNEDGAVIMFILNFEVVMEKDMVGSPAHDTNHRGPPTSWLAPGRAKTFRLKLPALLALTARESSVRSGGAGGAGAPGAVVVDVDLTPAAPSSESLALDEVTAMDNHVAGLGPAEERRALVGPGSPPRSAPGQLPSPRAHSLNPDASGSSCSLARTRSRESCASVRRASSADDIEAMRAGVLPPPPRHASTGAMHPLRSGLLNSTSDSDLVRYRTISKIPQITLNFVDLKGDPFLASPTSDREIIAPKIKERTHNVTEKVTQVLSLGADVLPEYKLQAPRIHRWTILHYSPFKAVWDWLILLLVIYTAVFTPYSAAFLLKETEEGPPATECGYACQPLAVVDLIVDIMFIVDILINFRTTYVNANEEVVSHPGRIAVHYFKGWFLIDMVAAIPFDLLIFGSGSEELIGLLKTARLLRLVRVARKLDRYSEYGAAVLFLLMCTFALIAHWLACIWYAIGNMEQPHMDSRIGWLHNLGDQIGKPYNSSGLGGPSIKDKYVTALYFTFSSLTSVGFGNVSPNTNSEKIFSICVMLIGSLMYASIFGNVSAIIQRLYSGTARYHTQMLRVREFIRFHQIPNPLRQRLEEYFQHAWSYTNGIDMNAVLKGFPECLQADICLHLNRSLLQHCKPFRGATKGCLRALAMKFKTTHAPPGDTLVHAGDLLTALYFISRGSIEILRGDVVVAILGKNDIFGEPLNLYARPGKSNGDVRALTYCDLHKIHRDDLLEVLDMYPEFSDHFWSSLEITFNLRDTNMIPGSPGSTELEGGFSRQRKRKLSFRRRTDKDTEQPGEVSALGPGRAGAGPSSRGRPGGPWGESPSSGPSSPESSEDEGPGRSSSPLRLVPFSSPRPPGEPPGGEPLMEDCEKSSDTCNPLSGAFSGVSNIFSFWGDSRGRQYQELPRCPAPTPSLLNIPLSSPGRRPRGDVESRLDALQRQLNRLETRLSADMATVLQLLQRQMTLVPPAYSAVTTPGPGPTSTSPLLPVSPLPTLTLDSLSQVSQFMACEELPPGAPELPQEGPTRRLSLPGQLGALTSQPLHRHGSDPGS", "assay": "Displacement of [3H]astemizole from human ERG expressed in HEK293 cell membrane at 10 uM for 2 hrs by Radiometric displacement assay", "format": "toxicity", "details": "HEK293 cell membranes that express hERG, probe [3H]astemizole"}, "[12]": {"assay": "Plasma protein binding in mouse", "format": "ADME, cell-free", "details": "read-out: PPB (converted)"}, "[13]": {"assay": "Metabolic stability in human liver microsomes assessed as parent compound remaining at 1 uM and measured at 30 mins by LC-MS/MS analysis", "format": "ADME, Microsome", "details": "read-out: Stability"}, "[14]": {"assay": "Metabolic stability in rat liver microsomes assessed as parent compound remaining at 1 uM and measured at 30 mins by LC-MS/MS analysis", "format": "ADME, Microsome", "details": "read-out: Stability"}, "[15]": {"assay": "Metabolic stability in mouse liver microsomes assessed as parent compound remaining at 1 uM and measured at 30 mins by LC-MS/MS analysis", "format": "ADME, Microsome", "details": "read-out: Stability"}, "[16]": {"assay": "Plasma protein binding in rat", "format": "ADME, cell-free", "details": "read-out: PPB"}},
  "data": [
    {"compound": "O=C([O-])CC1CCC2(CC1)CCN(c1ccc(NC(=O)c3nnc(Nc4ccc(F)c(F)c4)o3)cn1)CC2.[Na+]", "values": [
      {"measurement": "inhibition at 25 µM", "setting": "[1]", "result": 12, "unit": "%"},
      {"measurement": "solubility at 4 h", "setting": "[2]", "result": 8, "unit": "µM"},
      {"measurement": "inhibition at 10 µM", "setting": "[3]", "result": 7, "unit": "%"},
      {"measurement": "inhibition at 25 µM", "setting": "[4]", "result": 8, "unit": "%"},
      {"measurement": "solubility at 4 h", "setting": "[5]", "result": "< 6", "unit": "µM"},
      {"measurement": "solubility at 4 h", "setting": "[6]", "result": "< 6", "unit": "µM"},
      {"measurement": "solubility at 4 h", "setting": "[7]", "result": 37, "unit": "µM"}
    ]},
    {"compound": "O=C(Nc1ccc(C2CCC3(CC2)CC(C(=O)O)C3)cc1)c1nnc(Nc2ccc(F)c(F)c2)o1", "note": "(centres undefined)", "values": [
      {"measurement": "inhibition at 25 µM", "setting": "[1]", "result": 16, "unit": "%"},
      {"measurement": "inhibition at 25 µM", "setting": "[8]", "result": 24, "unit": "%"},
      {"measurement": "inhibition at 25 µM", "setting": "[4]", "result": 18, "unit": "%"}
    ]},
    {"compound": "O=C(O)CC1CCC2(CC1)CCC(c1ccc(NC(=O)c3nnc(Nc4ccc(F)c(F)c4)o3)cc1)CC2", "note": "(stereo in doubt; 8b)", "values": [
      {"measurement": "IC50", "setting": "[9]", "result": 75, "unit": "nM"},
      {"measurement": "IC50", "setting": "[10]", "result": 23, "unit": "nM"}
    ]},
    {"compound": "O=C(O)CC1CCC2(CC1)CCC(c1ccc(NC(=O)c3nnc(Nc4ccc(F)c(F)c4)o3)cc1)CC2", "note": "(stereo in doubt; 8)", "values": [
      {"measurement": "inhibition at 2 h, 10 µM", "setting": "[11]", "result": 18, "unit": "%"},
      {"measurement": "fraction unbound", "setting": "[12]", "result": "< 0.01"},
      {"measurement": "remaining at 0.5 h, 1 µM", "setting": "[13]", "result": 100, "unit": "%"},
      {"measurement": "remaining at 0.5 h, 1 µM", "setting": "[14]", "result": 96, "unit": "%"},
      {"measurement": "IC50", "setting": "[10]", "result": 14.6, "unit": "nM"},
      {"measurement": "remaining at 0.5 h, 1 µM", "setting": "[15]", "result": 97, "unit": "%"},
      {"measurement": "fraction unbound", "setting": "[16]", "result": 0.01}
    ]}
  ]
}
